# From patent US20040010001A1, “Methods and compositions for modulating cell proliferation and cell death” (priority 1999, published 2004)
# Read-outs that look alike come from different tables or passages of the source.
# Assays:
# [1] = tested on: Human prostate PC3 tumor cells; experiment: aFGF/bFGF-induced resistance and reversal by suramin, sulforhodamine B assay; type: cell-based
# Description: The experimental conditions are described briefly below. […] Cell number was measured using the sulforhodamine B assay which measures the total protein concentration. […] The FGF-induced resistance was dependent on the FGF concentrations, with a higher resistance at higher FGF concentrations.
# [2] = tested on: Human prostate PC3 tumor cells; experiment: Drug treatment and extracellular bFGF (ELISA), LDH release, cell number; type: cell-based; details: for Extracellular LDH, % of control / Extracellular bFGF, % of control / Extracellular concentration bFGF / bFGF:LDH ratio: 72 hours
# Description: The experimental conditions are described briefly below. […] The remaining cell number at the end of treatment was counted using a Coulter counter. The extracellular bFGF concentration was measured using ELISA. The release of lactate dehydrogenase (LDH) into the extracellular culture medium is indicative of cell death and gives a measure of the release of cellular content into the culture medium. If the increase in extracellular bFGF level is due to the release of bFGF upon cell death and lysis, the increase in bFGF will be accompanied by an increase in LDH in the same extent. This would result in an higher bFGF level and a constant bFGF-to-LDH ratio. On the other hand, an increase in extracellular bFGF due to an increase in bFGF production and release of bFGF from cells by processes other than cell lysis will result in an higher bFGF level and an higher bFGF-to-LDH ratio.
# [3] = Homo sapiens, read-out: IC50, Control (drug treatment only, without FGF treatment), No suramin, drug 96 hours
# [4] = Homo sapiens, read-out: IC50, aFGF 0.3 ng/ml + bFGF 1 ng/ml, No suramin, FGF pretreatment 96 hours, drug 96 hours
# [5] = Homo sapiens, read-out: IC50, aFGF 1 ng/ml + bFGF 3 ng/ml, No suramin, FGF pretreatment 96 hours, drug 96 hours
# [6] = no suramin, relative to control
# [7] = read-out: IC50, Control (without FGF treatment), Suramin, 15 μM, drug 96 hours with 15 μM suramin
# [8] = read-out: IC50, aFGF 0.3 ng/ml + bFGF 1 ng/ml, With suramin, FGF pretreatment 96 hours, drug 96 hours with 15 micromolar suramin
# [9] = read-out: IC50, aFGF 1 ng/ml + bFGF 3 ng/ml, With suramin, FGF pretreatment 96 hours, drug 96 hours with 15 micromolar suramin
# [10] = read-out: IC50, Control (drug treatment only, without FGF treatment), No suramin, drug 96 hours
# [11] = read-out: IC50, aFGF 0.3 ng/ml + bFGF 1 ng/ml, No suramin, FGF pretreatment 96 hours, drug 96 hours
# [12] = read-out: IC50, aFGF 1 ng/ml + bFGF 3 ng/ml, No suramin, FGF pretreatment 96 hours, drug 96 hours
Molecule,"IC50 [1, 3]","IC50 [1, 4]","IC50 [1, 5]","Resistance, Folds, aFGF 0.3 ng/ml + bFGF 1 ng/ml [1, 6]","Resistance, Folds, aFGF 1 ng/ml + bFGF 3 ng/ml [1, 6]","IC50 [1, 7]","IC50 [1, 8]","IC50 [1, 9]","IC50 [1, 10]","IC50 [1, 11]","IC50 [1, 12]",also measured
CC[C@@]1(O)C(=O)OCc2c1cc1n(c2=O)Cc2cc3ccccc3nc2-1 [Camptothecin],5.03 nM,11.4 nM,17.2 nM,2.26 Folds,3.42 Folds,4.8 nM,5.4 nM,5.78 nM,,,,"Remaining cell number at 72 hours (% of control) ([2]; drug concentration 2 NM): 83%; Remaining cell number at 72 hours × 10^6 ([2]; drug concentration 2 NM): 2.0 × 10^6; Extracellular LDH, % of control ([2]; drug concentration 2 NM): 137 % of control; Extracellular bFGF, % of control ([2]; drug concentration 2 NM): 145 % of control; Extracellular concentration bFGF ([2]; drug concentration 2 NM): 9.08 pg/mL; bFGF:LDH ratio ([2]; drug concentration 2 NM): 1.06; Remaining cell number at 72 hours (% of control) ([2]; drug concentration 6 NM): 50%; Remaining cell number at 72 hours × 10^6 ([2]; drug concentration 6 NM): 1.2 × 10^6; Extracellular LDH, % of control ([2]; drug concentration 6 NM): 182 % of control; Extracellular bFGF, % of control ([2]; drug concentration 6 NM): 221 % of control; Extracellular concentration bFGF ([2]; drug concentration 6 NM): 13.9 pg/mL; bFGF:LDH ratio ([2]; drug concentration 6 NM): 1.22; Remaining cell number at 72 hours (% of control) ([2]; drug concentration 20 NM): 21%; Remaining cell number at 72 hours × 10^6 ([2]; drug concentration 20 NM): 0.5 × 10^6; Extracellular LDH, % of control ([2]; drug concentration 20 NM): 219 % of control; Extracellular bFGF, % of control ([2]; drug concentration 20 NM): 279 % of control; Extracellular concentration bFGF ([2]; drug concentration 20 NM): 17.5 pg/mL; bFGF:LDH ratio ([2]; drug concentration 20 NM): 1.28"
N.N.[Cl][Pt][Cl] [Cisplatin],,,,1.76 Folds,3.69 Folds,2690 nM,3090 nM,3010 nM,2760 nM,4850 nM,10200 nM,"Remaining cell number at 72 hours (% of control) ([2]; drug concentration 2000 NM): 86%; Remaining cell number at 72 hours × 10^6 ([2]; drug concentration 2000 NM): 1.9 × 10^6; Extracellular LDH, % of control ([2]; drug concentration 2000 NM): 169 % of control; Extracellular bFGF, % of control ([2]; drug concentration 2000 NM): 267 % of control; Extracellular concentration bFGF ([2]; drug concentration 2000 NM): 5.87 pg/mL; bFGF:LDH ratio ([2]; drug concentration 2000 NM): 1.58; Remaining cell number at 72 hours (% of control) ([2]; drug concentration 6000 NM): 45%; Remaining cell number at 72 hours × 10^6 ([2]; drug concentration 6000 NM): 1.0 × 10^6; Extracellular LDH, % of control ([2]; drug concentration 6000 NM): 534 % of control; Extracellular bFGF, % of control ([2]; drug concentration 6000 NM): 1561 % of control; Extracellular concentration bFGF ([2]; drug concentration 6000 NM): 95.9 pg/mL; bFGF:LDH ratio ([2]; drug concentration 6000 NM): 2.92; Remaining cell number at 72 hours (% of control) ([2]; drug concentration 20000 NM): 18%; Remaining cell number at 72 hours × 10^6 ([2]; drug concentration 20000 NM): 0.4 × 10^6; Extracellular LDH, % of control ([2]; drug concentration 20000 NM): 563 % of control; Extracellular bFGF, % of control ([2]; drug concentration 20000 NM): 1641 % of control; Extracellular concentration bFGF ([2]; drug concentration 20000 NM): 101 pg/mL; bFGF:LDH ratio ([2]; drug concentration 20000 NM): 2.88"
CC[C@@]1(O)C(=O)OCc2c1cc1n(c2=O)Cc2cc3c(CN(C)C)c(O)ccc3nc2-1 [Topotecan],22.2 nM,31.1 nM,53.9 nM,1.40 Folds,2.43 Folds,21.7 nM,20.8 nM,21 nM,,,,
COc1cc(NCc2ccc3nc(N)nc(N)c3c2C)cc(OC)c1OC [Trimetrexate],33.6 nM,54 nM,95.9 nM,1.61 Folds,2.85 Folds,33.1 nM,30.6 nM,28.9 nM,,,,
Oc1ncc(N(CCCl)CCCl)c(O)n1 [Uracil Mustard],,,,,,,,,,,,"Resistance, Folds, aFGF 0.3 ng/ml + bFGF 1 ng/ml [1]: 1.41 Folds; Resistance, Folds, aFGF 1 ng/ml + bFGF 3 ng/ml [1]: 2.24 Folds; IC50 ([1]; Homo sapiens, 96 h, read-out: IC50, Control (drug treatment only, without FGF treatment), No suramin): 30000 nM; IC50 ([1]; Homo sapiens, 96 h, read-out: IC50, aFGF 0.3 ng/ml + bFGF 1 ng/ml, No suramin): 42400 nM; IC50 ([1]; Homo sapiens, 96 h, read-out: IC50, aFGF 1 ng/ml + bFGF 3 ng/ml, No suramin): 67100 nM; IC50 ([1]; read-out: IC50, Control (without FGF treatment), Suramin, 15 μM): 38200 nM; IC50 ([1]; read-out: IC50, aFGF 0.3 ng/ml + bFGF 1 ng/ml, With suramin): 37600 nM; IC50 ([1]; read-out: IC50, aFGF 1 ng/ml + bFGF 3 ng/ml, With suramin): 34600 nM"
CC[C@]1(O)C[C@@H]2CN(CCc3c([nH]c4ccccc34)[C@@](C(=O)OC)(c3cc4c(cc3OC)N(C)[C@H]3[C@@](O)(C(=O)OC)[C@H](OC(C)=O)[C@]5(CC)C=CCN6CC[C@]43[C@@H]65)C2)C1 [Vinblastine],0.33 nM,0.45 nM,0.78 nM,1.36 Folds,2.36 Folds,0.4 nM,0.42 nM,0.35 nM,,,,"Remaining cell number at 72 hours (% of control) ([2]; drug concentration 0.5 NM): 74%; Remaining cell number at 72 hours × 10^6 ([2]; drug concentration 0.5 NM): 1.7 × 10^6; Extracellular LDH, % of control ([2]; drug concentration 0.5 NM): 263 % of control; Extracellular bFGF, % of control ([2]; drug concentration 0.5 NM): 675 % of control; Extracellular concentration bFGF ([2]; drug concentration 0.5 NM): 59.1 pg/mL; bFGF:LDH ratio ([2]; drug concentration 0.5 NM): 2.57; Remaining cell number at 72 hours (% of control) ([2]; drug concentration 1 NM): 43%; Remaining cell number at 72 hours × 10^6 ([2]; drug concentration 1 NM): 1.0 × 10^6; Extracellular LDH, % of control ([2]; drug concentration 1 NM): 326 % of control; Extracellular bFGF, % of control ([2]; drug concentration 1 NM): 1073 % of control; Extracellular concentration bFGF ([2]; drug concentration 1 NM): 94.0 pg/mL; bFGF:LDH ratio ([2]; drug concentration 1 NM): 3.29; Remaining cell number at 72 hours (% of control) ([2]; drug concentration 2 NM): 17%; Remaining cell number at 72 hours × 10^6 ([2]; drug concentration 2 NM): 0.4 × 10^6; Extracellular LDH, % of control ([2]; drug concentration 2 NM): 513 % of control; Extracellular bFGF, % of control ([2]; drug concentration 2 NM): 2046 % of control; Extracellular concentration bFGF ([2]; drug concentration 2 NM): 179 pg/mL; bFGF:LDH ratio ([2]; drug concentration 2 NM): 3.99"
CC[C@]1(O)C[C@H]2CN(CCc3c([nH]c4ccccc34)[C@@](C(=O)OC)(c3cc4c(cc3OC)N(C=O)[C@H]3[C@@](O)(C(=O)OC)[C@H](OC(C)=O)[C@]5(CC)C=CCN6CC[C@]43[C@@H]65)C2)C1 [Vincristine],6.58 nM,,,4.00 Folds,6.77 Folds,6.82 nM,,,,,,
CC[C@]1(O)C[C@@H]2CN(CCc3c([nH]c4ccccc34)[C@@](C(=O)OC)(c3cc4c(cc3OC)N(C)[C@H]3[C@@](O)(C(N)=O)[C@H](O)[C@]5(CC)C=CCN6CC[C@]43[C@@H]65)C2)C1 [Vindesine],0.39 nM,0.53 nM,0.82 nM,,,0.35 nM,0.37 nM,0.43 nM,,,,
CCC1=C[C@@H]2CN(C1)Cc1c([nH]c3ccccc13)[C@@](C(=O)OC)(c1cc3c(cc1OC)N(C)[C@H]1[C@@](O)(C(=O)OC)[C@H](OC(C)=O)[C@]4(CC)C=CCN5CC[C@]31[C@@H]54)C2 [Vinorelbin],,,,1.32 Folds,2.26 Folds,3.29 nM,3.6 nM,3.84 nM,3.99 nM,5.25 nM,9.01 nM,
Dihydrolenperone,,,,1.81 Folds,3.37 Folds,28100 nM,26100 nM,23900 nM,24600 nM,44500 nM,82900 nM,
